Measurements taken from EP0180615B1, “NOVEL ATRIAL NATRIURETIC/VASODILATOR POLYPEPTIDES” (priority 1984, dated 1995).
Positions of bridges follow the written chain, without caps; N, C: chain ends. Residues, ends and D or L forms follow the SMILES beside them.

Columns and labels:
[1] = system: cultured bovine aortic endothelial cells; experiment: cyclic GMP accumulation in cultured aortic endothelial cells; type: cell-based; conditions: dose-response, % of maximal cyclic GMP increase (Figure 11B)
Source text: (§1) Since the agonistic action of ANVP in vascular smooth muscle not only results from binding to specific receptors, but is also associated with increases in cyclic GMP, the effects of ANVPs and analogs on cyclic GMP accumulation were examined using the same cultured cells. […] In Figure 11A & B, the relative activities of ANVP and analogs on cyclic GMP accumulation in aortic smooth muscle and endothelial cells are shown. The data is plotted in a dose-response relationship (log dose vs % of maximal cyclic GMP increases).

[2] = system: cultured bovine aortic smooth muscle cells; experiment: cyclic GMP accumulation in cultured aortic smooth muscle cells; type: cell-based; conditions: dose-response, % of maximal cyclic GMP increase (Figure 11A)
Source text: as §1

[3] = system: binding sites on vascular smooth muscle cells; experiment: 125I-ANVP binding and displacement on cultured vascular wall cells; set-up: species or system bovine; conditions: unlabelled competitor; vascular smooth muscle cells (Table III)
Procedure: Therefore, cells of vascular wall origin, e.g. bovine aortic smooth muscle and endothelial cells, were used to determine binding of ANVP compounds to specific receptors and associated cyclic GMP increases were measured.
Binding assays were performed as follows: ANVPs were labelled with ^1251 according to the procedure of Schenk, et al., J. Biol. Chem., 259:14941-14951 (1984). This procedure utilizes glucose oxidase and lactoperoxidase mediated oxidations to transfer ^1251 to the tyrosine on the ANVP molecule. ^1251-ANVP was then added to 10 mm confluent cultures of vascular wall cells and incubated at 37 °C.
Thus, the displacement of ^1251-ANVP binding by ANVPs and analogs as a function of concentration is a reflection of their potency to bind to the vascular wall and alter the contractile state of the vessel.

isolated adrenal cells = experiment: angiotensin-stimulated aldosterone production by isolated adrenal cells; type: cell-based
Source text: (§2) Thus, ANVPs are able to block the effects of the renin-angiotensin system at several levels: (1) they antagonize the direct actions of angiotensin on its target organs (blood vessels and the adrenal); and (2) inhibit renin secretion, which leads to a reduced rate of angiotensin formation in the blood.

intact rat = experiment: natriuresis after bolus injection in the intact anesthetized rat; type: in vivo; conditions: Inactin anesthetized rats on constant saline infusion
Procedure: Synthetic ANVP compounds rANVP(126-149), rANVP(126-150) and hANVP(127-151) were also found to be natriuretic in the intact rat. These compounds were administered as a bolus injection to Inactin anesthetized rats (100 mg/kg, average weight 399 g) which were maintained on a constant infusion of normal saline at 2.2 ml/hr. […] Data are expressed as mean ± SE.

isolated rat kidney = experiment: isolated perfused rat kidney
Procedure: The activity of rANVP(126-149) was measured in the isolated rat kidney. Functioning isolated rat kidneys were perfused in a closed-circuit system, as described in Camargo, M.J.F. et al. Am.J.Physiol., 246:F447-F456 (1984). After control clearance periods, 0.1 to 1.0 µg of the compound was added to the perfusate. The effects on multiple parameters were noted. These peak values are expressed in Table I as the experimental data. It is clear that rANVP(126-149) caused urine flow rate, urinary sodium excretion, filtration fraction and glomerular filtration rate to increase.
Isolated rat kidneys were treated as described in Table I. Control periods for each compound are denoted by C and experimental periods following the addition of compounds are denoted by E. V-urine flow rate UNaV-urinary sodium excretion rate, GFR-glomerular filtration rate. Data represent the mean of 3-8 experiments.
Samples of the above expressed material were also tested for natriuretic and diuretic activity using the isolated perfused rat kidney model as described by Camargo, M. et al., Am. J. Physiol. 246:F447-F456-(1984). As shown in Table VIII material synthesized and secreted by yeast cultures containing YEp-a-NF-5 and purified as described above through the SP-Sephadex step increased urinary Na^+ excretion approximately 3-fold and urinary volume 2-fold as examined during repeated test periods of 10 minutes each. […] No significant increase occurred in urinary Na^+ excretion, urinary volume, glomerular filtration or renal resistance when the same experiment was performed on material synthesized and secreted by yeast cultures containing the reverse orientation control plasmid YEp-a-NF-7 and purified through SP-Sephadex@.

anesthetized dogs = experiment: renal and hemodynamic effects of constant infusion in anesthetized dogs; type: in vivo; conditions: 1 µg/kg bolus, followed by 0.1 µg/kg/min for 1 hour
Procedure: Renal and hemodynamic effects have also been measured in anesthetized dogs receiving a constant infusion of the compound rANVP(126-149) (1 µg/kg bolus, followed by 0.1 µg/kg/min for 1 hour). Immediate effects were noted on blood pressure, GFR and urine flow rate and electrolyte excretion which were sustained throughout the infusion. The "experimental" data presented for these parameters in Table IV are the average values obtained during the infusion. […] All these parameters returned to control (i.e. pre-infusion) levels during the recovery period (i.e. following termination of the infusion).
as §2

[4] = 0.1 to 1.0 µg added to the perfusate after control clearance periods, peak values
[5] = 0.1 to 1.0 µg added to the perfusate, perfused in the absence of vasoconstrictors

Compound: CC[C@H](C)[C@@H]1NC(=O)[C@H](CCCNC(=N)N)NC(=O)[C@H](CC(=O)O)NC(=O)[C@H]([C@@H](C)CC)NC(=O)[C@H](CCCNC(=N)N)NC(=O)CNC(=O)[C@@H](C)NC(=O)[C@H](Cc2ccccc2)NC(=O)[C@@H](NC(=O)[C@H](CO)NC(=O)[C@H](CO)NC(=O)[C@@H](N)CCCNC(=N)N)CSSC[C@@H](C(=O)N[C@@H](CC(N)=O)C(=O)N[C@@H](CO)C(=O)N[C@@H](Cc2ccccc2)C(=O)N[C@@H](CCCNC(=N)N)C(=O)N[C@@H](Cc2ccc(O)cc2)C(=O)O)NC(=O)CNC(=O)[C@H](CC(C)C)NC(=O)CNC(=O)[C@H](CO)NC(=O)[C@H](CCC(N)=O)NC(=O)[C@H](C)NC(=O)CNC1=O [[D-Ala^131]rANVP(126-150)]
- rank order of potency, cyclic GMP accumulation [1]: > rANVP(127-150) = other D amino acid substitutions
- rank order of potency, cyclic GMP accumulation [2]: > rANVP(127-150) = other D amino acid substitutions

Compound: CC[C@H](C)[C@@H]1NC(=O)[C@H](CCCNC(=N)N)NC(=O)[C@H](CC(=O)O)NC(=O)[C@H]([C@@H](C)CC)NC(=O)[C@H](CCCNC(=N)N)NC(=O)CNC(=O)CNC(=O)[C@H](Cc2ccccc2)NC(=O)[C@@H](NC(=O)[C@H](CO)NC(=O)[C@H](CO)NC(=O)[C@@H](N)CCCNC(=N)N)CSSC[C@@H](C(=O)N[C@@H](CC(N)=O)C(=O)N[C@@H](CO)C(=O)N[C@@H](Cc2ccccc2)C(=O)N[C@@H](CCCNC(=N)N)C(=O)N[C@@H](Cc2ccc(O)cc2)C(=O)O)NC(=O)CNC(=O)[C@H](CC(C)C)NC(=O)[C@@H](C)NC(=O)[C@H](CO)NC(=O)[C@H](CCC(N)=O)NC(=O)[C@H](C)NC(=O)CNC1=O [[D-Ala^142]rANVP(126-150), [D-Ala'^42]rANVP(126-150)]
- rank order of potency, cyclic GMP accumulation [1]: > rANVP(127-150) = other D amino acid substitutions
- displacement of 125I-ANVP binding [3]: most reactive
- rank order of potency, cyclic GMP accumulation [2]: > rANVP(127-150) = other D amino acid substitutions

Compound: CC[C@H](C)[C@@H]1NC(=O)[C@H](CCCNC(=N)N)NC(=O)[C@H](CC(=O)O)NC(=O)[C@H]([C@@H](C)CC)NC(=O)[C@H](CCCNC(=N)N)NC(=O)CNC(=O)CNC(=O)[C@H](Cc2ccccc2)NC(=O)[C@@H](NC(=O)[C@H](CO)NC(=O)[C@H](CO)NC(=O)[C@@H](N)CCCNC(=N)N)CSSC[C@@H](C(=O)N[C@@H](CC(N)=O)C(=O)N[C@@H](CO)C(=O)N[C@@H](Cc2ccccc2)C(=O)N[C@@H](CCCNC(=N)N)C(=O)O)NC(=O)CNC(=O)[C@H](CC(C)C)NC(=O)CNC(=O)[C@H](CO)NC(=O)[C@H](CCC(N)=O)NC(=O)[C@H](C)NC(=O)CNC1=O [rANVP(126-149), rANVP (126-149)] (H-RSSCFGGRIDRIGAQSGLGCNSFR-OH; disulfide 4-20)
- ability of angiotensin to stimulate aldosterone production (isolated adrenal cells): inhibits
- rank order of potency, cyclic GMP accumulation [1]: > rANVP(127-150) = other D amino acid substitutions
- natriuretic in the intact rat (intact rat): natriuretic
- urinary sodium excretion (isolated rat kidney; [4]): increase
- urine flow rate (isolated rat kidney; [4]): increase
- filtration fraction (isolated rat kidney; [5]): increase
- glomerular filtration rate (isolated rat kidney; [5]): increase
- rank order of potency, cyclic GMP accumulation [2]: > rANVP(127-150) = other D amino acid substitutions
- GFR rose (anesthetized dogs): 25-35%
- Mean arterial pressure (MAP) fell (anesthetized dogs): 10-15%
- diuresis and natriuresis (anesthetized dogs): sustained diuresis and natriuresis
- plasma aldosterone (PA) (anesthetized dogs): significant decreases
- plasma renin activity (PRA) (anesthetized dogs): significant decreases

Compound: angiotensin
- displacement of 125I-ANVP binding [3]: not by a variety of hormones

Compound: glucagon
- displacement of 125I-ANVP binding [3]: not by a variety of hormones

Compound: vasopressin
- displacement of 125I-ANVP binding [3]: not by a variety of hormones
